# Test results taken from patent US20110028472A1, “THIENOPYRIMIDINES” (MERCK PATENT CESELLSCHAFT MIT BESCHRANKTER HAFTUNG, priority 2008, published 2011).
# Target: T1, GST-ALK5 (Homo sapiens, UniProt P36897)
# T1 sequence (P36897 34-503): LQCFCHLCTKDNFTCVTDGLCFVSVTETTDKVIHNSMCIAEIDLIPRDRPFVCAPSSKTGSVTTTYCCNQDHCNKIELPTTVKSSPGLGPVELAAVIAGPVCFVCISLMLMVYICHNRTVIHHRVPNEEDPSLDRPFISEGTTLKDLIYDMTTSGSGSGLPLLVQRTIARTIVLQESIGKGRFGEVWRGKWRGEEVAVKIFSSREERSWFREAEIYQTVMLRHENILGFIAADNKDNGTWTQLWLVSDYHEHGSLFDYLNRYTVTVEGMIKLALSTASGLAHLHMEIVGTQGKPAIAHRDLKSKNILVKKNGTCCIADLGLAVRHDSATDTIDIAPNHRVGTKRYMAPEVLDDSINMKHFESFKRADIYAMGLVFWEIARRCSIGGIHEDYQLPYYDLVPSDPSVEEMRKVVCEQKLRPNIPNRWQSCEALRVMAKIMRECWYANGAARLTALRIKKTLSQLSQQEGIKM
# Assay: In-vitro (enzyme) kinase assay, 384-well flashplate, inhibition of TGF-beta receptor I kinase
# Assay type: biochemical
# Details: 31.2 nM GST-ALK5, 439 nM GST-SMAD2, 3 mM ATP (33P-ATP), 30° C., 45 min
# Protocol: In-Vitro (Enzyme) Assay for the Determination of the Efficacy of Inhibitors of the Inhibition of TGF-Beta-Promoted Effects Vermittelten Wirkungen
# The kinase assay is carried out as 384-well flashplate assay. 31.2 nM of GST-ALK5, 439 nM of GST-SMAD2 and 3 mM of ATP (with 0.3 μCi of ^33P-ATP/well) are incubated in a total volume of 35 μl (20 mM of HEPES, 10 mM of MgCl, 5 mM of MnCl, 1 mM of DTT, 0.1% of BSA, pH 7.4) without or with test substance (5-10 concentrations) at 30° C. for 45 min. The reaction is stopped using 25 μl of 200 mM EDTA solution, filtered with suction at room temperature after 30 min, and the wells are washed with 3 times 100 μl of 0.9% NaCl solution. Radioactivity is measured in the TopCount. The IC50 values are calculated using RS1.
row,Compound,IC50
1,"C=CCNc1nc(-c2ccc(C)o2)c2c(N)c(C(N)=O)sc2n1 [Compound A42, 2-allylamino-5-amino-4-(5-methylfuran-2-yl)-thieno[2,3-d]pyrimidine-6-carboxamide]",67 nM
2,"Cc1cccc(-c2nc(NCCC#N)nc3sc(C(N)=O)c(N)c23)n1 [Compound A56, 5-amino-2-(2-cyanoethylamino)-4-(6-methylpyridin-2-yl)thieno[2,3-d]-pyrimidine-6-carboxamide]",79 nM
3,"Cc1ccc(-c2nc(C(C)(C)C)nc3sc(C(N)=O)c(N)c23)o1 [Compound A26, 5-amino-2-tert-butyl-4-(5-methylfuran-2-yl)thieno[2,3-d]pyrimidine-6-carboxamide]",77 nM
4,"CSc1nc(-c2ccco2)c2c(N)c(C(N)=O)sc2n1 [Compound A8, 5-amino-4-furan-2-yl-2-methylsulfanylthieno[2,3-d]pyrimidine-6-carboxamide]",97 nM
5,"CC(C)(C)c1nc(-c2ccco2)c2c(N)c(C(N)=O)sc2n1 [Compound A25, 5-amino-2-tert-butyl-4-furan-2-ylthieno[2,3-d]pyrimidine-6-carboxamide]",87 nM

# These reach a lower IC50. Values come first.
row,IC50,Compound
1,48 nM,"Cc1ccc(-c2nc(C3CC3)nc3sc(C(N)=O)c(N)c23)o1 [Compound A1, 5-amino-2-cyclopropyl-4-(5-methylfuran-2-yl)-thieno[2,3-d]pyrimidine-6-carboxamide]"
2,22 nM,"C=CCNc1nc(-c2cccc(C)n2)c2c(N)c(C(N)=O)sc2n1 [Compound A50, 2-allylamino-5-amino-4-(6-methylpyridin-2-yl)thieno[2,3-d]pyrimidine-6-carboxamide]"
3,46 nM,"CSc1nc(-c2ccc(C)o2)c2c(N)c(C(N)=O)sc2n1 [Compound A10, 5-Amino-4-(5-methylfuran-2-yl)-2-methyl-sulfanylthieno[2,3-d]pyrimidine-6-carboxamide]"
4,36 nM,"CNc1nc(-c2ccc(C)o2)c2c(N)c(C(N)=O)sc2n1 [Compound A34, 5-amino-2-methylamino-4-(5-methylfuran-2-yl)thieno[2,3-d]pyrimidine-6-carboxamide]"
5,54 nM,"C#CCNc1nc(-c2cccc(C)n2)c2c(N)c(C(N)=O)sc2n1 [Compound A52, 5-amino-4-(6-methylpyridin-2-yl)-2-prop-2-ynylaminothieno[2,3-d]pyrimidine-6-carboxamide]"
